Source: the supplement of paper PMC10307832

Experiments:
Experiment in all cases: relative viability (nuclei count vs DMSO), 5 days (fraction); higher = more cells survive
[1] = compound: CC1=NC=CC(=C1)C2=CC=C(C=C2)CC(=O)NC3=CC=C(C=C3)C4=CN=CC=C4 [Wnt-C59]
Procedure, shortened: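 Viability is treated-well nuclei as a fraction of vehicle-well nuclei, reported as the median across plates. Before counting, lung cancer cell lines were kept overnight at 37 °C in 1536-well plates, pinned with five √10-spaced library-drug doses on vehicle-anchored plates, and left 5 days without medium change, then fixed, permeabilised and Hoechst-stained in one step, imaged at 4× and counted by MetaXpress. A plate passed only if control CV was below 25% and at least one doubling occurred.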

[2] = compound: CS(=O)(=O)CCNCc1ccc(-c2ccc3ncnc(Nc4ccc(OCc5cccc(F)c5)c(Cl)c4)c3c2)o1 [Lapatinib] + Cc1nc(NC(=O)N2CCC[C@H]2C(N)=O)sc1-c1ccnc(C(C)(C)C(F)(F)F)c1 [Alpelisib] (partner 2 µM)
Procedure, shortened: (§1)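 Each reported value is a median over duplicate plates. It expresses relative viability: treated-well nuclei count divided by vehicle-well nuclei count. Lung cancer cell lines in 1536-well plates were dosed by pin tool a day after seeding, alone with one drug or with a fixed anchor-drug dose plus five library-drug doses (not always all listed) in √10 steps, and nuclei were counted after 5 days.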

[3] = compound: CS(=O)(=O)CCNCc1ccc(-c2ccc3ncnc(Nc4ccc(OCc5cccc(F)c5)c(Cl)c4)c3c2)o1 [Lapatinib] + Cc1nc(Nc2ncc(C(=O)Nc3c(C)cccc3Cl)s2)cc(N2CCN(CCO)CC2)n1 [Dasatinib] (partner 0.075 µM)
Procedure, shortened: as §1

[4] = compound: CC1=NC=CC(=C1)C2=CC=C(C=C2)CC(=O)NC3=CC=C(C=C3)C4=CN=CC=C4 [Wnt-C59] + COc1cccc2cc(-c3nc([C@H]4CC[C@H](C(=O)O)CC4)n4ncnc(N)c34)[nH]c12 [OSI-027] (partner 0.5 µM)
Procedure, shortened: as §1

| Cell Line | relative viability ([1]; 0.001 µM) | relative viability ([1]; 0.01 µM) | relative viability ([1]; 0.03162 µM) | relative viability ([1]; 0.1 µM) | relative viability ([2]; first compound 0.02 µM) | relative viability ([2]; first compound 0.06325 µM) | relative viability ([2]; first compound 0.2 µM) | relative viability ([2]; first compound 0.6325 µM) | relative viability ([2]; first compound 2 µM) | relative viability ([3]; first compound 0.02 µM) | relative viability ([3]; first compound 0.2 µM) | relative viability ([3]; first compound 0.6325 µM) | relative viability ([3]; first compound 2 µM) | relative viability ([4]; first compound 0.001 µM) | relative viability ([4]; first compound 0.01 µM) | relative viability ([4]; first compound 0.03162 µM) | relative viability ([4]; first compound 0.1 µM) | relative viability ([3]; first compound 0.06325 µM) |
| --- | --- | --- | --- | --- | --- | --- | --- | --- | --- | --- | --- | --- | --- | --- | --- | --- | --- | --- |
| NCI-H2023 | 0.948 | 1.03 | 1.15 | 0.801 | 0.53 | 0.576 | 0.528 | 0.553 | 0.378 | 0.458 | 0.516 | 0.619 | 0.381 | 0.475 | 0.316 | 0.461 | 0.376 | – |
| HOP-62 | 0.998 | 1 | 1.06 | 0.953 | – | 0.618 | 0.861 | 1.14 | 0.856 | 0.508 | 0.615 | 0.69 | 0.566 | 0.743 | 0.813 | 0.788 | 0.852 | 0.633 |
| NCI-H2009 | 0.997 | 0.999 | 1 | 0.992 | 1.12 | 1.16 | 1.16 | 1.16 | 1.12 | 0.282 | 0.358 | 0.33 | 0.286 | 0.699 | 0.701 | 0.695 | 0.64 | 0.244 |
| NCI-H1915 | 0.995 | 0.942 | 0.969 | 1 | – | 1.05 | 1.08 | 1.03 | 1.02 | – | 0.337 | 0.293 | 0.297 | 0.667 | 0.578 | 0.529 | 0.692 | 0.285 |
| NCI-H650 | 0.886 | 0.952 | 1.03 | 0.974 | – | 1.04 | 0.998 | 0.953 | 1.2 | – | 0.404 | 0.458 | 0.439 | 0.581 | 0.661 | 0.485 | 0.532 | 0.389 |
| NCI-H3122 | 0.989 | 0.991 | 1.02 | 0.962 | 0.714 | 0.725 | 0.752 | 0.691 | 0.771 | 0.736 | 0.85 | 0.675 | 0.859 | 1.02 | 0.978 | 1.32 | 0.891 | 0.407 |
| NCI-H2085 | 1.02 | 0.98 | 1 | 0.953 | 0.869 | 0.845 | 0.932 | 1 | 0.694 | 0.241 | 0.284 | 0.16 | 0.204 | 0.837 | 0.569 | 0.747 | 0.77 | 0.212 |
| NCI-H1395 | 0.995 | 0.873 | 0.952 | 1.03 | – | 0.93 | 1.18 | 0.978 | 1.03 | 0.43 | 0.375 | 0.439 | 0.425 | 0.61 | 0.661 | 0.717 | 0.727 | 0.39 |
| EKVX | 1.03 | 0.759 | 1.01 | 0.832 | 0.869 | 0.675 | 0.845 | 0.575 | 0.212 | – | 0.423 | 0.384 | 0.196 | 0.728 | 0.574 | 0.648 | 0.565 | 0.321 |
| HCC-15 | 1.05 | 1.01 | 1.07 | 0.981 | – | 0.799 | 0.843 | 0.857 | 0.797 | – | 0.591 | 0.622 | 0.551 | 0.641 | 0.718 | 0.647 | 0.752 | 0.403 |
| LK-2 | 0.958 | 0.982 | 0.993 | 1.12 | – | – | 0.938 | 1.13 | 1.01 | – | 0.264 | 0.283 | 0.35 | 0.211 | 0.265 | 0.199 | 0.229 | – |
| SK-MES-1 | 1.01 | 1.05 | 1.06 | 0.993 | 0.698 | – | 0.709 | 0.629 | 0.33 | 0.243 | 0.157 | 0.19 | 0.126 | 0.673 | 0.54 | 0.666 | 0.567 | 0.143 |
| COR-L23 | 0.961 | 1.01 | 1.07 | 0.963 | 0.694 | 0.602 | 0.871 | 0.752 | 0.688 | 0.501 | 0.508 | 0.565 | 0.443 | 0.763 | 0.701 | 0.954 | 0.735 | 0.441 |
| NCI-H1355 | 1.02 | 0.885 | 1.01 | 0.905 | – | 0.621 | 0.734 | 0.762 | 0.416 | – | 0.705 | 0.694 | 0.319 | 0.446 | 0.302 | 0.366 | 0.417 | 0.465 |
| NCI-H441 | 1.11 | 1.22 | 1.1 | 0.993 | – | 0.65 | 0.68 | 0.617 | 0.799 | – | 0.562 | 0.557 | 0.592 | 0.754 | 0.616 | 0.718 | 0.568 | 0.263 |
| NCI-H1563 | 1.07 | 0.933 | 0.954 | 0.941 | 0.951 | 0.848 | 0.795 | 0.961 | 0.898 | 0.505 | 0.425 | 0.491 | 0.435 | 0.711 | 0.784 | 0.761 | 0.728 | 0.405 |
| NCI-H322M | 0.999 | 0.859 | 0.84 | 0.867 | 0.776 | 0.669 | 0.808 | 0.73 | 0.773 | 0.287 | 0.246 | 0.226 | 0.225 | 0.53 | 0.498 | 0.442 | 0.399 | 0.238 |
| NCI-H1993 | 0.86 | 0.751 | 1.04 | 0.909 | 0.683 | – | 0.721 | 0.684 | 0.665 | 0.564 | 0.55 | 0.516 | 0.563 | 0.582 | – | 0.57 | 0.544 | – |
